Reference: ChEMBL document CHEMBL4507319 (2021)

What was measured:
[1] = target: 5-hydroxytryptamine receptor 6 (Homo sapiens) (UniProt P50406); details: Compound concentration 10.0 uM
[2] = target: T1, Serine/threonine-protein kinase D1 (Homo sapiens) (UniProt Q15139); details: Compound concentration 1000.0 nM
T1 sequence (whole entry): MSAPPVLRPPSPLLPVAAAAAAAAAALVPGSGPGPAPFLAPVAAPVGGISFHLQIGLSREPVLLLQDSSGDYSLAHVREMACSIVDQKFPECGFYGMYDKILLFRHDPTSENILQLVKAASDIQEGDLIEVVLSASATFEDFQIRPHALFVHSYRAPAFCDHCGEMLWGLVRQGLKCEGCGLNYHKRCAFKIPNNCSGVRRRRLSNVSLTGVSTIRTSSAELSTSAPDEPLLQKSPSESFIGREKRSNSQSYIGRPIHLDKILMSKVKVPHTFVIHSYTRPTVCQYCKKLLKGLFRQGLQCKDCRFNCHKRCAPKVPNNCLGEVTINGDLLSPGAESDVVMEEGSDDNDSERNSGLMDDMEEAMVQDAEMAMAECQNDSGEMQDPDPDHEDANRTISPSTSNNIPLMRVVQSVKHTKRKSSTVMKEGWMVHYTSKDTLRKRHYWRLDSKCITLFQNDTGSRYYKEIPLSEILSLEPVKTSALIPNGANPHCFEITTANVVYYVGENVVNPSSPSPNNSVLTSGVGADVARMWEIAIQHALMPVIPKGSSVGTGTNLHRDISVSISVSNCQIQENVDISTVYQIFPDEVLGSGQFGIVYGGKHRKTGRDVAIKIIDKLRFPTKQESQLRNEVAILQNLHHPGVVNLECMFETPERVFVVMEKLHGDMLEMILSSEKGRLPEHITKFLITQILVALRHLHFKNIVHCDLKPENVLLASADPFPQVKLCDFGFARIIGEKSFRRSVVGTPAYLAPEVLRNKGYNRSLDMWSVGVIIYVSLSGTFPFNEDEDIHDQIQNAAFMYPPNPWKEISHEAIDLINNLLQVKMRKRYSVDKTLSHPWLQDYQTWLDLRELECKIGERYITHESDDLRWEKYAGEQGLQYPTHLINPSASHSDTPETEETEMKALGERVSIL

[3] = target: cAMP-dependent protein kinase catalytic subunit alpha (Homo sapiens) (UniProt P17612); details: Compound concentration 1000.0 nM
[4] = target: Serine/threonine-protein kinase PLK4 (Homo sapiens) (UniProt O00444); details: Compound concentration 1000.0 nM
Chain of Serine/threonine-protein kinase PLK4 (Homo sapiens) (O00444 whole entry): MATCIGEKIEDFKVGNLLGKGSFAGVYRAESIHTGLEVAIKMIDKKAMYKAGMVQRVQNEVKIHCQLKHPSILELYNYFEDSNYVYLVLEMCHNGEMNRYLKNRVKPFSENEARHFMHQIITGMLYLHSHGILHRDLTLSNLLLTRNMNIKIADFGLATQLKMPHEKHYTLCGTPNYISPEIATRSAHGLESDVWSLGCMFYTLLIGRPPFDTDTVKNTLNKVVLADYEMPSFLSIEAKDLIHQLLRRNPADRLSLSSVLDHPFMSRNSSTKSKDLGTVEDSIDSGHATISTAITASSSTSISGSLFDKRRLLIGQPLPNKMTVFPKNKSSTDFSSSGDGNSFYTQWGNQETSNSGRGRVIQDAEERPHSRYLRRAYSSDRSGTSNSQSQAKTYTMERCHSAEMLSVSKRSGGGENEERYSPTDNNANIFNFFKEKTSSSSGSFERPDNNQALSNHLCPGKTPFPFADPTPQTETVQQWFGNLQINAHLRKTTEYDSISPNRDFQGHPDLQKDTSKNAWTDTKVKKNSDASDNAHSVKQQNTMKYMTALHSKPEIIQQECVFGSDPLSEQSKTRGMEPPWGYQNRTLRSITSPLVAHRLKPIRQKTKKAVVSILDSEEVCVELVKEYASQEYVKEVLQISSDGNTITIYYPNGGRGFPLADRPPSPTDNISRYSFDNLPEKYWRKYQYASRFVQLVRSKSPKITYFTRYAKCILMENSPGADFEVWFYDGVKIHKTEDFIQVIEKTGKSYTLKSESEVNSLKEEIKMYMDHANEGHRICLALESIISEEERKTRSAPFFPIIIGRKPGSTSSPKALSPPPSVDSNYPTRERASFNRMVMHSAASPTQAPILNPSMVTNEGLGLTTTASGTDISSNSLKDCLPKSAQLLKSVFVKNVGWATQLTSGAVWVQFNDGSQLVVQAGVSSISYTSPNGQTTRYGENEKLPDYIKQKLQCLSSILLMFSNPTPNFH

[5] = target: Mitogen-activated protein kinase kinase kinase kinase 5 (Homo sapiens) (UniProt Q9Y4K4); details: Compound concentration 1000.0 nM
[6] = target: Cyclin-dependent kinase 15 (Homo sapiens) (UniProt Q96Q40); details: Compound concentration 1000.0 nM
Chain of Cyclin-dependent kinase 15 (Homo sapiens) (Q96Q40 whole entry): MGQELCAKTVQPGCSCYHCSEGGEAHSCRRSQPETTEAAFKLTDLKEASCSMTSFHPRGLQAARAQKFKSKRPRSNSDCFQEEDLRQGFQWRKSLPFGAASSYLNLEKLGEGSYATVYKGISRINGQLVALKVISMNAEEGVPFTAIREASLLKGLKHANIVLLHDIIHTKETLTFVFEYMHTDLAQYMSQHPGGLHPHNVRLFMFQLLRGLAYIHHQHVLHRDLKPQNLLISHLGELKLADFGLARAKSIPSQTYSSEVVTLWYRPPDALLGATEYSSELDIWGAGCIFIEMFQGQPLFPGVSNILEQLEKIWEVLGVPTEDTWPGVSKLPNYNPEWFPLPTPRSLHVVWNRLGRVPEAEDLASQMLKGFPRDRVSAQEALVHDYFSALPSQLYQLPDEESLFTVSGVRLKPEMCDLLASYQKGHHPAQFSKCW

[7] = target: Dual specificity mitogen-activated protein kinase kinase 2 (Homo sapiens) (UniProt P36507); details: Compound concentration 1000.0 nM
[8] = target: Tyrosine-protein kinase SYK (Homo sapiens) (UniProt P43405); details: Compound concentration 1000.0 nM
[9] = target: T2, Aurora kinase A (Homo sapiens) (UniProt O14965); details: Compound concentration 1000.0 nM
T2 sequence (whole entry): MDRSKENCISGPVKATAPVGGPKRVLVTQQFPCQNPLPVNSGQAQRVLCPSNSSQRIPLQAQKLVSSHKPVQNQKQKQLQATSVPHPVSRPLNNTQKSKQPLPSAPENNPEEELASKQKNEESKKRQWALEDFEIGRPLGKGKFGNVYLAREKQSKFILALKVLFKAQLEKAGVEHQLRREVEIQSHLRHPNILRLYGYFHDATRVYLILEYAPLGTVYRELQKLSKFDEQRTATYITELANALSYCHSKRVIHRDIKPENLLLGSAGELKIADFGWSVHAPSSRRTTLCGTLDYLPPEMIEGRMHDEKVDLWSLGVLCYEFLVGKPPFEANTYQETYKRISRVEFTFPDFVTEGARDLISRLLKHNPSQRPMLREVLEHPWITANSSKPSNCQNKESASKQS

[10] = target: Serine/threonine-protein kinase 35 (Homo sapiens) (UniProt Q8TDR2); details: Compound concentration 1000.0 nM
[11] = system: Receptor-type tyrosine-protein kinase FLT3 (Homo sapiens), P36888 [K663Q]; details: Compound concentration 1000.0 nM
[12] = target: Serine/threonine-protein kinase LATS1 (Homo sapiens) (UniProt O95835); details: Compound concentration 1000.0 nM
[13] = target: Tyrosine-protein kinase ABL1 (Homo sapiens) (UniProt P00519); details: Compound concentration 1000.0 nM
[14] = system: Tyrosine-protein kinase ABL1 (Homo sapiens), P00519 [F317I]; details: Compound concentration 1000.0 nM
[15] = target: Interferon-induced, double-stranded RNA-activated protein kinase (Homo sapiens) (UniProt P19525); details: Compound concentration 1000.0 nM
Chain of Interferon-induced, double-stranded RNA-activated protein kinase (Homo sapiens) (P19525 whole entry): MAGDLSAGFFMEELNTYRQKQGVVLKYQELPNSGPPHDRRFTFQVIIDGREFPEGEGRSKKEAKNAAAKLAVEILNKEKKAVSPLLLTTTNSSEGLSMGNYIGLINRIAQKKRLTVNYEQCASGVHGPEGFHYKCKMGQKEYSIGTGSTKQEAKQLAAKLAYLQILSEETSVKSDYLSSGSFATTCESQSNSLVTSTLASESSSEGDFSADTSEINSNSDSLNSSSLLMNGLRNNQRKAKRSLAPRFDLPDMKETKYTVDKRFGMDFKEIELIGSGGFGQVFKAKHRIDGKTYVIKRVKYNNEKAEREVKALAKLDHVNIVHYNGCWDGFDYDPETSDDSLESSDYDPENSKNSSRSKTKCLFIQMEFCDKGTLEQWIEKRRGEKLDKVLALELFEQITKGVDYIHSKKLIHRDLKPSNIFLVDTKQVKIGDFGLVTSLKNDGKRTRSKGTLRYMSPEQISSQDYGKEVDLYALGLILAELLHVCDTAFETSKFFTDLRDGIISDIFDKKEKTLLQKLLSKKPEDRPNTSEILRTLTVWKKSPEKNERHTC

[16] = target: Ribosomal protein S6 kinase alpha-3 (Homo sapiens, UniProt P51812); details: Compound concentration 1000.0 nM
[17] = target: Mitogen-activated protein kinase 9 (Homo sapiens) (UniProt P45984); details: Compound concentration 1000.0 nM
Chain of Mitogen-activated protein kinase 9 (Homo sapiens) (P45984 whole entry, looked up): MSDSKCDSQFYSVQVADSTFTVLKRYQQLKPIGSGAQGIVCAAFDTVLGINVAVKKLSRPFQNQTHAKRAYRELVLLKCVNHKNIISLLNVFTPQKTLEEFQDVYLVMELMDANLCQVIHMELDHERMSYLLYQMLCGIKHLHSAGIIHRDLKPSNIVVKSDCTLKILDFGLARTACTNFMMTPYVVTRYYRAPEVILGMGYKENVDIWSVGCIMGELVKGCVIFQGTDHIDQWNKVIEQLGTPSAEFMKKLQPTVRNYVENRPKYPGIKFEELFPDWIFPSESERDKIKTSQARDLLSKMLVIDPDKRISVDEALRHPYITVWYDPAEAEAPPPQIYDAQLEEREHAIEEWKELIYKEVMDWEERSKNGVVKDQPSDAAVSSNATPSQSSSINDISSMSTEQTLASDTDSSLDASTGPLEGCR

[18] = target: Tyrosine-protein kinase Lyn (Homo sapiens) (UniProt P07948); details: Compound concentration 1000.0 nM
[19] = target: 5-hydroxytryptamine receptor 2B (Homo sapiens) (UniProt P41595); details: Compound concentration 10.0 uM
Chain of 5-hydroxytryptamine receptor 2B (Homo sapiens) (P41595 whole entry): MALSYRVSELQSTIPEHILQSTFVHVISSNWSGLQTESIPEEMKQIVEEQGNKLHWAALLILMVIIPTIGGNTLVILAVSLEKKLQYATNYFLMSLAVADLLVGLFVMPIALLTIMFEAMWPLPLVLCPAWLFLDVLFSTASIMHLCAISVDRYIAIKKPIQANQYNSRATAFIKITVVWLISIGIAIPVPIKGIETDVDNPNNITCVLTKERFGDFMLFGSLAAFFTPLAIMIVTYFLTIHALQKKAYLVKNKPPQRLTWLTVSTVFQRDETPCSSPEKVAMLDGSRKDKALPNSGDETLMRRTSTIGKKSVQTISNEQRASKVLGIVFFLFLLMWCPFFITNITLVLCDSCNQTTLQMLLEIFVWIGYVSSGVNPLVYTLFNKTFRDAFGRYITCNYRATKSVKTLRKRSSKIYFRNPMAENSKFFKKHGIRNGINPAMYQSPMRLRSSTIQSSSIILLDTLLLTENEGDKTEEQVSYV

[20] = system: Tyrosine-protein kinase ABL1 (Homo sapiens), P00519 [M351T]; details: Compound concentration 1000.0 nM
[21] = target: Alpha-1D adrenergic receptor (Homo sapiens) (UniProt P25100); details: Compound concentration 10.0 uM
[22] = target: Mitogen-activated protein kinase kinase kinase 1 (Homo sapiens) (UniProt Q13233); details: Compound concentration 1000.0 nM
[23] = target: Cyclin-dependent kinase-like 3 (Homo sapiens) (UniProt Q8IVW4); details: Compound concentration 1000.0 nM
Chain of Cyclin-dependent kinase-like 3 (Homo sapiens) (Q8IVW4 whole entry, looked up): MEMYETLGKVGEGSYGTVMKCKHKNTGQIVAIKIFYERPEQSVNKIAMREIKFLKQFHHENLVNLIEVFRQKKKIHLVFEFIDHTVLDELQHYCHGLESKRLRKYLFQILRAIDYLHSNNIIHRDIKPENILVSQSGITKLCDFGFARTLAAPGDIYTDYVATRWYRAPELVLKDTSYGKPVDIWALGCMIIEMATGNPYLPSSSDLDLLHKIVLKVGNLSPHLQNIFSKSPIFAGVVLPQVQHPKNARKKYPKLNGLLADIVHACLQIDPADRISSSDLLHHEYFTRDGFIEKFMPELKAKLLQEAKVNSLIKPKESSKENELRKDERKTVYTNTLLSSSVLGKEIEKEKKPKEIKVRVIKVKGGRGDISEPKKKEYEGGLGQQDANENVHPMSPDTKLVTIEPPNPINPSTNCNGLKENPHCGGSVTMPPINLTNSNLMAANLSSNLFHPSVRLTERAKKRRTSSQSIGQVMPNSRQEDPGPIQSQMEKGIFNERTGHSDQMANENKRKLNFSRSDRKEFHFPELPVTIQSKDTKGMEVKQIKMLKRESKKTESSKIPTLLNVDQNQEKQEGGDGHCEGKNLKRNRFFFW

[24] = target: Peripheral plasma membrane protein CASK (Homo sapiens) (UniProt O14936); details: Compound concentration 1000.0 nM
Chain of Peripheral plasma membrane protein CASK (Homo sapiens) (O14936 whole entry): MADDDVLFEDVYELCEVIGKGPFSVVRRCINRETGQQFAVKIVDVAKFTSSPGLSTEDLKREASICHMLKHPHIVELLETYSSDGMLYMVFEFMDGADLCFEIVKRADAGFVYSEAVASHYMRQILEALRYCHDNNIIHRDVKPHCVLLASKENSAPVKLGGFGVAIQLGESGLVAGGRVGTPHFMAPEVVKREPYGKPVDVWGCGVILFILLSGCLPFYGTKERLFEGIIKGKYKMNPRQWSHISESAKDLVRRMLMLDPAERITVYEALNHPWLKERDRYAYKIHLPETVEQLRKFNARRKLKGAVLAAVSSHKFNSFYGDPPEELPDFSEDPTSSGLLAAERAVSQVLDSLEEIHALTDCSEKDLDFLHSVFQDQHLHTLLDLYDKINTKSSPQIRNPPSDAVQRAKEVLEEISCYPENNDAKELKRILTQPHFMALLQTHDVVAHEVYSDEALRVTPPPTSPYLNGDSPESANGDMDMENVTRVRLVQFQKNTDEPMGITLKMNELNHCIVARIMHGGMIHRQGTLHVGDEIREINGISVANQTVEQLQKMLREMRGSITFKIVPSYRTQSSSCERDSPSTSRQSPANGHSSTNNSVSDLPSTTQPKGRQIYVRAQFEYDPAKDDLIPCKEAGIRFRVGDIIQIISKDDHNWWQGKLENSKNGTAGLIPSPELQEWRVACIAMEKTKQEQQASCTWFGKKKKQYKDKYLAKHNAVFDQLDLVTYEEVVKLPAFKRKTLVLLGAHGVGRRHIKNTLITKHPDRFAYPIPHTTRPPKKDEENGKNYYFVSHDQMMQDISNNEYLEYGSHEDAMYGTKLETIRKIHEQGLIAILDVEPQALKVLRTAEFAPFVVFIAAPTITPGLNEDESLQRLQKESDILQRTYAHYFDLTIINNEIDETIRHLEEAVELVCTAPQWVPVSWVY

[25] = system: Tyrosine-protein kinase ABL1 (Homo sapiens), P00519 [Y253F]; details: Compound concentration 1000.0 nM

Chain of 5-hydroxytryptamine receptor 6 (Homo sapiens) (P50406 whole entry): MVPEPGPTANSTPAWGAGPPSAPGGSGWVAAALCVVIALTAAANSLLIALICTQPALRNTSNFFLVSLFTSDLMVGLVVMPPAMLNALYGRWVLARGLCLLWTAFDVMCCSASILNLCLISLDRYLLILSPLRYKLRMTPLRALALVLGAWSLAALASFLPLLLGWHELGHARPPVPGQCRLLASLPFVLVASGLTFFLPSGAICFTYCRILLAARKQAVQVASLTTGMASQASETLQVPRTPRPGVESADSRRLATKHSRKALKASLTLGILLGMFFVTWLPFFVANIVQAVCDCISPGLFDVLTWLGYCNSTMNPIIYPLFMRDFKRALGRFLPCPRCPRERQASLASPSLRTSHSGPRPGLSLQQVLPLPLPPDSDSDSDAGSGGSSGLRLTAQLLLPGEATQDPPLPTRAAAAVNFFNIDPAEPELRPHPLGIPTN

Compound | inhibition [1] [%] | residual activity [2] [%] | residual activity [3] [%] | residual activity [4] [%] | residual activity [5] [%] | residual activity [6] [%] | residual activity [7] [%] | residual activity [8] [%] | residual activity [9] [%] | residual activity [10] [%] | residual activity [11] [%] | residual activity [12] [%] | residual activity [13] [%] | residual activity [14] [%] | residual activity [15] [%] | residual activity [16] [%] | residual activity [17] [%] | residual activity [18] [%] | inhibition [19] [%] | residual activity [20] [%] | further results
CCc1ccccc1C(=O)Nc1n[nH]c2c(C)c(F)c(C3C(C#N)=C(C)N(C)C(C)=C3C#N)cc12 [BAY-3827] | 9.23 | 100 | 89 | 100 | 100 | 95 | 100 | 100 | 51 | 100 | 13 | 100 | 88 | 100 | 100 | 100 | 67 | 86 | 32.5 | 99 | inhibition [21]: 2.75%; residual activity [22]: 100%; residual activity [23]: 87%; residual activity [24]: 81%; residual activity [25]: 85%
CC1=C(C#N)C(c2ccc3c(c2)c(NC(=O)c2ccccc2C)nn3C)C(C#N)=C(C)N1 [BAY-974] | 2.21 | 92 | 77 | 100 | 100 | 100 | 82 | 100 | 61 | 86 | 100 | 85 | 66 | 78 | 100 | 94 | 73 | 89 | 11.4 | 94 | inhibition [21]: 4.71%; residual activity [22]: 51%; residual activity [23]: 79%; residual activity [24]: 67%; residual activity [25]: 82%
